Values after ≈ are worked out from the molar mass of the structure shown. Active and inactive are the calls of the source. No cut-off for these calls is given here.
Legend:
[1] = tested on: Enterococcus; assay: Antibacterial activity vancomycin-resistant Enterococcus assessed as inhibition of bacterial growth incubated for 24 hrs by CLSI based analysis; assay type: functional
[2] = tested on: Staphylococcus aureus; assay: Antibacterial activity methicillin-resistant Staphylococcus aureus 003 assessed as inhibition of bacterial growth incubated for 24 hrs by CLSI based analysis; assay type: functional
[3] = tested on: Cell membrane; assay: Disruption of bacterial cell membrane in methicilin-resistant Staphylococcus aureus 003 assessed as increase in green fluorescence intensity incubated for 1 hr by DAPI/PI staning based confocal laser microscopic analysis
[4] = tested on: Staphylococcus aureus; assay: Antibacterial activity Staphylococcus aureus assessed as inhibition of bacterial growth incubated for 24 hrs by CLSI based analysis; assay type: functional
[5] = tested on: Staphylococcus aureus; assay: Antibacterial activity methicillin-resistant Staphylococcus aureus 011 assessed as inhibition of bacterial growth incubated for 24 hrs by CLSI based analysis; assay type: functional
[6] = tested on: Staphylococcus aureus; assay: In vivo antibacterial activity against methicilin-resistant Staphylococcus aureus infected in ICR mouse skin infection model assessed as reduction in bacterial burden at 5 mg/kg, ip preadministered with compound for 24 hrs followed by bacterial infection and measured after 3 days; assay type: functional; set-up: scale not given: the % may be the effect or the level left; conditions: time 96 hrs
[7] = tested on: Staphylococcus aureus; assay: Bactericidal activity methicillin-resistant Staphylococcus aureus 003 assessed as inhibition of bacterial growth incubated for 24 hrs by CLSI based analysis; assay type: functional
[8] = tested on: Escherichia coli; assay: Antibacterial activity Escherichia coli assessed as inhibition of bacterial growth incubated for 24 hrs by CLSI based analysis; assay type: functional
[9] = tested on: Staphylococcus aureus; assay: Antibacterial activity methicillin-resistant Staphylococcus aureus 003 assessed as ROS accumulation at 2 to 8 times MIC incubated for 60 mins; assay type: functional, organism-based
[10] = tested on: Staphylococcus aureus; assay: Antibacterial activity methicillin-resistant Staphylococcus aureus 003 assessed as downregulation of fabG expression by qRT-PCR analysis; assay type: functional, organism-based
[11] = tested on: Cell membrane; assay: Induction of inner membrane permeability in methicillin-resistant Staphylococcus aureus 003 assessed as fold change in MIC in presence of phosphatidylethanolamine; assay type: subcellular
[12] = tested on: Staphylococcus aureus; assay: Antibacterial activity methicillin-resistant Staphylococcus aureus 003 assessed as downregulation of fabD expression by qRT-PCR analysis; assay type: functional, organism-based
[13] = tested on: Staphylococcus aureus; assay: Bactericidal activity Staphylococcus aureus assessed as inhibition of bacterial growth incubated for 24 hrs by CLSI based analysis; assay type: functional
[14] = tested on: Staphylococcus aureus; assay: Antibacterial activity methicillin-resistant Staphylococcus aureus 003 assessed as increase in fluorescence intensity at 1 time MIC; assay type: functional
[15] = tested on: Staphylococcus aureus; assay: Antibacterial activity methicillin-resistant Staphylococcus aureus 003 assessed as downregulation of plsY expression by qRT-PCR analysis; assay type: functional, organism-based
[16] = tested on: Staphylococcus aureus; assay: Antibacterial activity methicillin-resistant Staphylococcus aureus 003 assessed as increase in intracellular ATP level incubated for 30 mins; assay type: functional, organism-based
[17] = tested on: Cell membrane; assay: Induction of inner membrane permeability in Escherichia coli assessed as increase in fluorescence intensity measured for 15 mins in presence of Polymyxin B sulfate
[18] = tested on: Staphylococcus aureus; assay: Induction of resistance development in Staphylococcus aureus incubated for 24 hrs treated over 20 serial passages by broth microdilution analysis; assay type: functional, organism-based
[19] = tested on: Staphylococcus aureus; assay: In vivo antibacterial activity against methicilin-resistant Staphylococcus aureus infected in ICR mouse skin infection model assessed as wound area at 20 mg/kg, ip preadministered with compound for 24 hrs followed by bacterial infection and measured after 3 days; assay type: functional; conditions: time 96 hrs
[20] = tested on: Staphylococcus aureus; assay: Induction of resistance development in methicilin-resistant Staphylococcus aureus 003 incubated for 24 hrs treated over 11 serial passages by broth microdilution analysis; assay type: functional, organism-based
[21] = tested on: Staphylococcus aureus; assay: Antibacterial activity methicillin-resistant Staphylococcus aureus 003 under […] condition at pH 5.5 to 9.5; assay type: functional, organism-based
[22] = tested on: Staphylococcus aureus; assay: Antibacterial activity methicillin-resistant Staphylococcus aureus 003 assessed as decrease in intracellular pH at 4 time MIC measured up to 74 mins; assay type: functional, organism-based
[23] = tested on: Staphylococcus aureus; assay: Bactericidal activity methicillin-resistant Staphylococcus aureus 011 assessed as inhibition of bacterial growth incubated for 24 hrs by CLSI based analysis; assay type: functional
[24] = tested on: Staphylococcus aureus; assay: In vivo antibacterial activity against methicilin-resistant Staphylococcus aureus infected in ICR mouse skin infection model assessed as reduction in bacterial burden at 20 mg/kg, ip preadministered with compound for 24 hrs followed by bacterial infection and measured after 3 days; assay type: functional; set-up: scale not given: the % may be the effect or the level left; conditions: time 96 hrs
[25] = tested on: Staphylococcus aureus; assay: In vivo antibacterial activity against methicilin-resistant Staphylococcus aureus infected in ICR mouse skin infection model assessed as reduction in bacterial burden at 10 mg/kg, ip preadministered with compound for 24 hrs followed by bacterial infection and measured after 3 days; assay type: functional; set-up: scale not given: the % may be the effect or the level left; conditions: time 96 hrs
[26] = tested on: Staphylococcus aureus; assay: Antibacterial activity methicillin-resistant Staphylococcus aureus 003 assessed as inhibition of H2S production at 1/4 times MIC; assay type: functional
[27] = tested on: Staphylococcus aureus; assay: Induction of resistance development in methicilin-resistant Staphylococcus aureus incubated for 24 hrs treated over 20 serial passages by broth microdilution analysis; assay type: functional, organism-based
[28] = tested on: Cell membrane; assay: Induction of inner membrane permeability in methicillin-resistant Staphylococcus aureus 003 assessed as fold change in MIC in presence of cardiolipin; assay type: subcellular
[29] = tested on: Staphylococcus aureus; assay: In vivo antibacterial activity against methicilin-resistant Staphylococcus aureus infected in ICR mouse skin infection model assessed as wound area at 10 mg/kg, ip preadministered with compound for 24 hrs followed by bacterial infection and measured after 3 days; assay type: functional; conditions: time 96 hrs
[30] = tested on: Staphylococcus aureus; assay: In vivo antibacterial activity against methicilin-resistant Staphylococcus aureus infected in ICR mouse skin infection model assessed as wound area at 5 mg/kg, ip preadministered with compound for 24 hrs followed by bacterial infection and measured after 3 days; assay type: functional; conditions: time 96 hrs
[31] = tested on: Staphylococcus aureus; assay: Antibacterial activity methicillin-resistant Staphylococcus aureus 003 assessed as downregulation of fabH expression by qRT-PCR analysis; assay type: functional, organism-based
[32] = tested on: Cell membrane; assay: Induction of inner membrane permeability in methicillin-resistant Staphylococcus aureus 003 assessed as fold change in MIC in presence of phosphatidylglycerol; assay type: subcellular
[33] = tested on: Staphylococcus aureus; assay: Bactericidal activity against methicilin-resistant Staphylococcus aureus 003 at 8 times MIC measured after 24 hrs by time kill assay; assay type: functional, organism-based
[34] = tested on: Enterococcus; assay: Antibacterial activity vancomycin-resistant Enterococcus assessed as decrease in intracellular pH at 4 time MIC measured up to 74 mins; assay type: functional, organism-based
[35] = tested on: Staphylococcus aureus; assay: Antibacterial activity methicillin-resistant Staphylococcus aureus 003 assessed as inhibition of H2S production at 1/4 to 1/8 times MIC; assay type: functional, organism-based
[36] = tested on: Cell membrane; assay: Disruption of bacterial cell membrane in methicilin-resistant Staphylococcus aureus 003 assessed as as appearance of wrinkled cell incubated for 1 hr by DAPI/PI staning based confocal laser microscopic analysis; assay type: subcellular
[37] = tested on: Cell membrane; assay: Disruption of bacterial cell membrane in vancomycin-resistant Enterococcus assessed as as appearance of wrinkled cell incubated for 1 hr by DAPI/PI staning based confocal laser microscopic analysis
[38] = tested on: Staphylococcus aureus; assay: Antibacterial activity methicillin-resistant Staphylococcus aureus 003 assessed as increase in fluorescence intensity at 4 time MIC; assay type: functional
[39] = tested on: Staphylococcus aureus; assay: Antibacterial activity methicillin-resistant Staphylococcus aureus 003 assessed as downregulation of fabZ expression by qRT-PCR analysis; assay type: functional, organism-based
[40] = tested on: Staphylococcus aureus; assay: Bactericidal activity against Staphylococcus aureus at 2 to 4 times MIC measured after 30 mins by time kill assay; assay type: functional, organism-based
[41] = tested on: Enterococcus; assay: Antibacterial activity vancomycin-resistant Enterococcus under […] condition at pH 5.5 to 9.5; assay type: functional, organism-based
[42] = tested on: Acinetobacter baumannii; assay: Antibacterial activity Acinetobacter baumannii assessed as inhibition of bacterial growth incubated for 24 hrs by CLSI based analysis; assay type: functional
[43] = tested on: Staphylococcus aureus; assay: Bactericidal activity against methicilin-resistant Staphylococcus aureus 003 at 2 to 4 times MIC measured after 24 hrs by time kill assay; assay type: functional, organism-based
[44] = tested on: Staphylococcus aureus; assay: Antibacterial activity methicillin-resistant Staphylococcus aureus 003 assessed as decrease in membrane fluidity incubated for 50 mins; assay type: functional, organism-based
[45] = tested on: Staphylococcus aureus; assay: Induction of resistance development Staphylococcus aureus incubated for 24 hrs treated over 11 serial passages by broth microdilution analysis; assay type: functional, organism-based
[46] = tested on: Cell membrane; assay: Induction of inner membrane permeability in methicillin-resistant Staphylococcus aureus 003 assessed as fold change in MIC in presence of peptidoglycan; assay type: subcellular
[47] = tested on: Cell membrane; assay: Induction of inner membrane permeability in vancomycin-resistant Enterococcus assessed as increase in fluorescence intensity incubated for 30 mins
[48] = tested on: Staphylococcus aureus; assay: Antibacterial activity methicillin-resistant Staphylococcus aureus 003 assessed as increase in fluorescence intensity by DiSC3(5) dye based analysis; assay type: functional, organism-based
[49] = tested on: Staphylococcus aureus; assay: Antibacterial activity methicillin-resistant Staphylococcus aureus 003 assessed as downregulation of fabF expression by qRT-PCR analysis; assay type: functional, organism-based
[50] = tested on: Enterococcus; assay: Bactericidal activity vancomycin-resistant Enterococcus assessed as inhibition of bacterial growth incubated for 24 hrs by CLSI based analysis; assay type: functional
[51] = tested on: Cell membrane; assay: Induction of inner membrane permeability in methicillin-resistant Staphylococcus aureus 003 assessed as increase in fluorescence intensity incubated for 30 mins
[52] = tested on: Staphylococcus aureus; assay: Bactericidal activity against Staphylococcus aureus at 2 to 4 times MIC measured after 24 hrs by time kill assay; assay type: functional, organism-based
[53] = tested on: Staphylococcus aureus; assay: Antibacterial activity methicillin-resistant Staphylococcus aureus 003 assessed as inhibition of H2S production at 50 uM; assay type: functional
[54] = tested on: Staphylococcus aureus; assay: Bactericidal activity against Staphylococcus aureus at 4 times MIC measured after 24 hrs by time kill assay; assay type: functional, organism-based
[55] = tested on: Cell membrane; assay: Disruption of bacterial cell membrane in methicilin-resistant Staphylococcus aureus 003 assessed as increase in red fluorescence intensity incubated for 1 hr by DAPI/PI staning based confocal laser microscopic analysis
[56] = tested on: Staphylococcus aureus; assay: Bactericidal activity against methicilin-resistant Staphylococcus aureus 003 at 4 times MIC measured after 24 hrs by time kill assay; assay type: functional, organism-based

## C[C@@H](O)[C@H]1C(=O)N2C(C(=O)O)=C(S[C@@H]3CN[C@H](C(=O)N(C)C)C3)[C@H](C)[C@H]12 [MEROPENEM]
[1]
  MIC: 8 µg/mL (≈ 20.9 µM)
[2]
  MIC: > 128 µg/mL
[3]
  Activity: Active
[4]
  MIC: 2 µg/mL (≈ 5.22 µM)
[5]
  MIC: > 128 µg/mL

## CC(C)=CCc1c(-c2ccc(O)cc2O)oc2c3c(cc(O)c2c1=O)OC(C)(C)C=C3 [MORUSIN]
[6]
  Activity: 50%
[1]
  MIC: 8 µg/mL (≈ 19 µM)
[7]
  MBC: 16 µg/mL (≈ 38.1 µM)
[8]
  MIC: > 512 µg/mL
[9]
  Activity: Active
[10]
  Activity: Active
[11]
  fold change (FC): 32
[12]
  Activity: Active
[13]
  MBC: 8 µg/mL (≈ 19 µM)
[14]
  Flu intensity: 334
[15]
  Activity: Active
[16]
  Activity: Dose-Dependent Effect
[17]
  Flu intensity: 0.9
[18]
  Activity: inactive
[2]
  MIC: 4 µg/mL (≈ 9.51 µM)
[19]
  Activity: 0.1 cm2
[20]
  Activity: Active
[21]
  Activity: Active
[4]
  MIC: 4 µg/mL (≈ 9.51 µM)
[22]
  Activity: Active
[23]
  MBC: 16 µg/mL (≈ 38.1 µM)
[24]
  Activity: 90%
[25]
  Activity: 80%
[26]
  inhibition (INH): 12%
[27]
  Activity: inactive
[28]
  fold change (FC): 8
[29]
  Activity: 0.16 cm2
[30]
  Activity: 0.3 cm2
[31]
  Activity: Active
[32]
  fold change (FC): 8
[33]
  Activity: Active
[34]
  Activity: Active
[35]
  inhibition: Active
[36]
  Activity: Active
[37]
  Activity: Active
[38]
  Flu intensity: 354
[5]
  MIC: 8 µg/mL (≈ 19 µM)
[39]
  Activity: Active
[40]
  Activity: Active
[41]
  Activity: Active
[42]
  MIC: > 512 µg/mL
[43]
  Activity: Active
[44]
  Activity: Dose-Dependent Effect
[45]
  Activity: Active
[46]
  Activity: inactive
[47]
  Activity: Dose-Dependent Effect
[48]
  Activity: Dose-Dependent Effect
[49]
  Activity: Active
[50]
  MBC: 16 µg/mL (≈ 38.1 µM)
[51]
  Activity: Dose-Dependent Effect
[52]
  Activity: Active

## CCc1ccc(CCOc2ccc(CC3SC(=O)NC3=O)cc2)nc1 (configuration not stated) [PIOGLITAZONE]
[53]
  inhibition at 50 µM: 54%

## CN[C@H](CC(C)C)C(=O)N[C@H]1C(=O)N[C@@H](CC(N)=O)C(=O)N[C@H]2C(=O)N[C@H]3C(=O)N[C@H](C(=O)N[C@H](C(=O)O)c4cc(O)cc(O)c4-c4cc3ccc4O)[C@H](O)c3ccc(c(Cl)c3)Oc3cc2cc(c3O[C@@H]2O[C@H](CO)[C@@H](O)[C@H](O)[C@H]2O[C@H]2C[C@](C)(N)[C@H](O)[C@H](C)O2)Oc2ccc(cc2Cl)[C@H]1O [VANCOMYCIN]
[1]
  MIC: 64 µg/mL (≈ 44.2 µM)
[54]
  Activity: inactive
[55]
  Activity: Active
[56]
  Activity: inactive
[30]
  Activity: 0.16 cm2
